A value given as a limit tells only on which side of the number the result lay.

One may read the melting point as the temperature of the solid-liquid transition.

`O=C(CCl)Nc1cccc(NC(=O)Nc2ccc(N(CCCl)CCCl)cc2)c1` came in with a melting point of 232 to 233 °C. With `COC(=O)C#CC(=O)c1ccc(Cl)c(Cl)c1` the figure was 58 to 59 °C; with `COc1cc(Cc2cnc(N)nc2N)c(Cc2cnc(N)nc2N)cc1OC`, 280 °C.

Compound `N=C(NN)c1ccccc1C(=N)NN` displayed a melting point of 251 to 253 °C. With `O=C(COCC(=O)Nc1ccc([N+](=O)[O-])c(C(F)(F)F)c1)Nc1ccc([N+](=O)[O-])c(C(F)(F)F)c1` the figure was 137 to 138 °C.

Turning to `Cc1ccc(OC2SCC(O)C(O)C2O)c(F)n1` (configuration not stated), the melting point lay within 167 to 170 °C. `CCCC(=O)n1nc(-c2ccncc2)nc1-c1ccncc1` had a melting point of 116 to 118 °C. In turn, `COc1ccccc1NC(=O)c1nc2c(s1)CN(C)CC2` had a melting point of 196 to 198 °C. In the case of `CC(C)NCC(O)COc1ccc2c(c1)CCN(C=O)C2` (configuration not stated) it was 56.6 to 58 °C; in that of `Cc1cc(C)c(C(=O)c2ccc(Cl)cc2)c(Cl)c1`, 41 to 52 °C. For `CCOCc1nc2c(N)nc3ccccc3c2n1CC1CCN(Cc2ccccc2)O1` (configuration not stated), the melting point was 137 to 138 °C. For the compound `CN(C)c1c(CC(=O)O)cccc1C(=O)c1ccccc1`, the melting point lay in the range of 144 to 146 °C.

`CSc1ncc(Cc2ccccn2)c(=O)[nH]1` had a melting point of 195 to 198 °C. The compound `COc1cccc(CC(=O)O)c1OCCc1ccccc1` had a melting point of 88 to 89 °C.

With `CCNC(=O)NC1(c2ccc(C(C)C)cc2OC)C(=O)c2ccccc2C1=O`, the melting point was 267 to 269 °C. In the case of `O=C(O)C1Oc2cc3onc(-c4ccccc4)c3c(Cl)c2O1` (configuration not stated) it was 102 °C. In turn, `CCOC(=O)C(C)Oc1ncn(-c2ccc(Cl)c(Cl)c2)n1` (configuration not stated) registered a melting point of 69 to 71 °C.

On to `CC(=O)Nc1c(C(=O)Cc2ccccc2)[nH]c2cc(Cl)ccc12`, for which the melting point was in the range of 258 to 259 °C. The compound `COc1ccc(C2(C#Cc3ccc(C(=O)O)cc3)CCCC(=O)C2)cc1OC1CCCC1` (racemic) displayed a melting point of 102 to 104 °C.

The compound `CSc1nc2cc(Cl)c(Cl)cc2n1C` came in with a melting point of 110 °C. With `CCC1(O)OC(=O)c2ccc(Oc3ccc(C(F)(F)F)cc3Cl)cc21` (configuration not stated) the figure was 120 to 122 °C; with `O=C1c2ccccc2C(=O)N1CCCCCCCCCCOc1ccc(-n2ccnc2)cc1`, 90 to 91 °C. For `O=C(NC(=O)c1c(F)cccc1F)Nc1cc(Cl)c(S(=O)C(F)(F)C(F)F)cc1Cl` (configuration not stated), the melting point fell in the range of 216 to 220 °C.

In turn, `NC(=O)NNC(c1ccccc1)c1ccccc1` had a melting point of 182 to 184 °C. Compound `C=CCNc1cc(C(=O)O)cc(S(N)(=O)=O)c1Oc1ccccc1` showed a melting point of 223 to 225 °C. In turn, `NC(=O)c1ccc2cc(O)ccc2c1` returned a melting point of 205 to 206 °C.

Take `O=c1[nH]c2ncc(-c3ccc(O)cc3)nc2n1CC1CCCOC1` (configuration not stated): the melting point was in the range of 271 to 272 °C. In the case of `Cc1ccc(C(Cl)=CC(=O)NC(Cc2ccccc2)C(=O)O)cc1` (configuration not stated) it was 168 to 170 °C; in that of `Cn1nc2cccc(OCC3CC3)c2c1S(N)(=O)=O`, 139 to 141 °C; in that of `COc1cc2c(cc1Cl)CCN(C)C[C@H]2c1ccccc1`, 91 to 92 °C. With `CC(C(N)=NO)N(CCN(C(C)C(N)=NO)C(C)C(N)=NO)C(C)C(N)=NO` (configuration not stated) the figure was 191 to 192 °C; with `COc1ccc2nc3c(C(=O)O)cccn3c(=O)c2c1`, 272 to 274 °C; with `NCCNC(=S)Nc1c(Br)cccc1Br`, 155 to 157 °C. For the compound `CCCCc1ncc(CC(NC(=O)CC)C(=O)O)n1Cc1ccccc1Cl` (configuration not stated), the melting point lay in the range of 203 to 205 °C. In the case of `N#CC(C#N)=CN(N=C(C#N)C#N)c1ccc(Br)cc1` it was 191 to 192 °C. In the case of `CCCc1c(C(=O)NCc2ccc3cc(OCC(=O)OC)ccc3c2)cnn1-c1ccc(Cl)cc1` it was 139 to 140 °C; in that of `N#Cc1cccc(C=Cc2ccc(Cl)c(Cl)c2)n1`, 124 to 125 °C. The compound `CC1CC(C)CN(C(=O)c2ccc(Cl)cc2)C1` (configuration not stated) gave a melting point of 114 to 115 °C. `CCCSc1csc(C(=O)O)c1S(=O)(=O)NC(C)(C)C` came in with a melting point of 123 to 126 °C. With `CN(C)CC(C)(C)C(NC(=O)c1ccc(Cl)cc1)NC(=NC#N)Nc1cccnc1` (configuration not stated), the melting point lay in the range of 101 to 103 °C. With `Cc1nc(N(C)C)sc1C(=O)c1ccc(N)c([N+](=O)[O-])c1` the figure was 225 to 228 °C; with `Nc1ccc(N)c(C(=O)c2ccccc2Cl)c1`, 30 to 40 °C; with `CC(=O)c1cc2c(s1)S(=O)CCN(CCCCN1CCN(c3ncccn3)CC1)C2=O` (configuration not stated), 103 to 106 °C. `CC(C)C1NC(=O)OC1C(F)(F)F` (configuration not stated) registered a melting point of 71 to 72 °C. With `c1ccc(CC2CNCCN2)cc1` (racemic) the figure was 80 to 81 °C; with `N#Cc1ccnc(C2=NC(c3ccc(F)cc3)(c3ccc(F)cc3)CN2)c1`, 206 to 208 °C; with `CCSc1ccc2c(c1)C(Cl)Cc1ccc(F)cc1S2` (configuration not stated), 99 °C. `CC(C)C[C@H](N)C(=O)N[C@@H](CC1CCCCC1)[C@@H](O)c1ccccn1` displayed a melting point of 98 to 100 °C. In the case of `Cc1ccc(S(=O)(=O)Oc2ccc(S(=O)(=O)c3ccoc3C(C)C)cc2)cc1` it was 94 °C; in that of `O=C1N=NC(=O)N1c1c(F)c(F)c(F)c(F)c1F`, 88 to 91 °C.

Consider `CCOC(=O)C(C)Oc1ccc(Oc2cnc3cc(Cl)ccc3n2)cc1F` (configuration not stated), for which the melting point amounted to 110 °C. In turn, `O=[N+]([O-])c1oc2ccccc2c1-n1ccnc1` came in with a melting point of 147 to 149 °C. With `CCCCc1oc2ccccc2c1Cc1ccc(O)cc1` the figure was 67 to 70 °C; with `CC(C)NC(=O)c1c[nH]c2ncc(-c3nn(CCCN(C)C)c4cc(Cl)cc(F)c34)nc12`, 249 to 255 °C; with `c1cn(Cc2ccc3c(c2)-c2[nH]nc(-c4ccsc4)c2C3)cn1`, 200 to 204 °C.

Compound `Nc1ccc(N2C(=O)c3cccc([N+](=O)[O-])c3C2=O)cc1` displayed a melting point of 177 °C. In the case of `CCCn1c(=O)c2c(NC)n[nH]c2n(Cc2ccncc2)c1=O` it was above 300 °C; in that of `Cc1cc2c(cc1Sc1ccc(C=O)cc1)C(C)(C)CCC2(C)C`, 98 to 99 °C; in that of `CN1CCN(C(=O)[C@H](CC(N)=O)NC(=O)OC(C)(C)C)CC1`, 68 to 70 °C. In turn, `NNc1cc(-c2ccccc2)c2cc(Cl)ccc2n1` had a melting point of 156 to 157 °C. For the compound `CCOc1ccccc1N1CCN(Cc2nc3ccccc3[nH]2)CC1`, the melting point is 95 to 100 °C. With `CCCS(=O)(=O)Nc1ccc(C(=O)c2nc(-c3cccc(C(=O)O)c3)c3ccccn23)cc1OC` the figure was 145 °C. In the case of `C=CCNC(=O)ON=C1SCOC1C` (configuration not stated) it was 66 to 67.5 °C. As for `CCOCCn1cc(C2CCN(CCOc3ccccc3C(=O)O)CC2)c2cccnc21`, the melting point was in the range of 137 to 140 °C.

In turn, `COc1ccc(C(=O)Nc2ccc(C(=O)O)cc2)cc1C1(C)CCCCC1` showed a melting point of 230 to 231 °C.

`CC(C)(C)c1nc(-c2n[nH]c(=O)o2)nc(C(C)(C)C)c1O` yielded a melting point of 230 to 232 °C. In the case of `CNS(=O)(=O)c1ccc(OC)c(C(=O)NCC2CCCN2CC2=CCCCC2)c1` (configuration not stated) it was 140 to 141 °C. Compound `CSc1[nH]c(C(C)C)nc(=O)c1C#N` gave a melting point above 260 °C. `CC(=O)N1CCC(OC(=O)c2ccccc2)(c2nccc3ccccc23)CC1` returned a melting point of 186 to 189 °C. Consider `CCOC(=O)COc1ccc(C(=O)Nc2ccccc2S(=O)c2ccccc2C#N)cc1` (configuration not stated), for which the melting point lay within 128 to 130 °C. On to `COC(=O)c1[nH]c(-c2ccccc2)c(-c2ccccc2)c1C(=O)OC`, for which the melting point lay in the range of 185 to 187 °C. On to `C#CCOc1nc(N)nc(-c2ccccc2)c1-c1ccc(=O)n(C(C)C)n1`, for which the melting point lay in the range of 145 to 147 °C.

In turn, `CCCc1nc2c(N)nc(C)c(C)c2n1CC(C)(C)NC(=O)c1ccccc1` returned a melting point of 208 to 210 °C. `CN1C(=O)c2c(F)c(F)c(F)c(F)c2C1=O` registered a melting point of 132 °C. In turn, `CNc1cc(C(=O)Nc2c(C)cc(C(F)(C(F)(F)F)C(F)(F)F)cc2C)ccc1C#N` had a melting point of 204 to 206 °C. With `COC(=O)c1ccc(S(C)(=O)=O)c(C(=O)NC(C)(C)CO)c1Cl` the figure was 70 to 72 °C; with `COc1c(C(=O)O)nc(-c2ccc(Cl)c(OC)c2F)c(F)c1N`, 143 to 146 °C. `CC(C)[C@@H](CNC(=O)/C=C/c1ccccc1)NC(=O)OC(C)(C)C` displayed a melting point of 149 to 151 °C. As for `CCc1nc2c(N)nc3ccccc3c2n1CCCCSc1ncccn1`, the melting point lay within 182 to 185 °C. In the case of `COc1ccc2[nH]c3c(c2c1)C(C(=O)O)CCC3` (configuration not stated) it was 175 to 177 °C. With `Fc1ccc(-c2nc3ccc(OC(F)(F)F)cc3[nH]2)cc1` the figure was 158 to 160 °C; with `S=C(Cc1ccc2c(c1)CCO2)N1CCOCC1`, 141 to 143 °C; with `CCCc1c(OCCCOc2cc([N+](=O)[O-])c(Cl)cc2C)ccc(C(C)=O)c1O`, 113 to 115 °C. In the case of `CC(Oc1ccc(Cl)cc1[N+](=O)[O-])c1ccnc2ncnn12` (configuration not stated) it was 158 °C; in that of `Nc1cc(CS(=O)(=O)CCO)ccc1CS(=O)(=O)CCO`, 196 to 198 °C. The compound `COc1ccc2nc(C)sc2c1N` yielded a melting point of 117 to 119 °C. In the case of `O=C(CCCCN1CCOCC1)NNC(=O)N1Cc2ccccc2Oc2ccc(Cl)cc21` it was 107 to 114 °C.

Turning to `CCN(CCCc1c[nH]c2c(F)cc(F)cc12)C1COc2c(C(N)=O)ccc(F)c2C1` (configuration not stated), the melting point was found to be 125 °C. In turn, `O=C(OCc1ccccc1)C1Cc2sccc2C(=O)N1Cc1ccccc1` (configuration not stated) registered a melting point of 72 °C.

As for `CC(=O)n1ccc(-c2ccc(F)cc2)c1-c1ccc(S(C)(=O)=O)cc1`, the melting point lay within 211 to 214 °C.

As for `CC(=O)c1ccc2c(c1)C(c1ccccc1F)=NC(C)C(=O)N2` (configuration not stated), the melting point was determined as 203 °C. In the case of `CSc1ccc(N=Cc2ccc(Cl)cc2)cc1` it was 203 to 205 °C.

For the origin of these results see a melting point compilation (Tetko et al.; mined from patent text by program, amines drawn as free bases though some values may be those of a salt).
